Earlier results, collected in US10543184B2, “Method to treat functional somatic syndromes with combination of aciclovir and celecoxib” (INNOVATIVE MED CONCEPTS, LLC, priority 2012, dated 2020).

System: fibromyalgia patients
Settings: Kendall et al., J. Rheumatology (2004) 31, 783-784

## CC(C)[C@H](N)C(=O)OCCOCn1cnc2c(=O)[nH]c(N)nc21 [valacyclovir]
  Outcome of treating fibromyalgia patients: not successful
